Drawing on patent publication US10045983B2, “Heteroaryl pyridone and aza-pyrodine compounds” (Genentech, Inc., priority 2011, dated 2018), this text covers IC70 for 21 compounds.

This assay can be described thus: CD69 Whole Blood Assay (CD69 Hu Blood FACS). Type of assay: cell-based, human. The settings on record: Lymphocyte; human whole blood, anti-IgM activated B lymphocytes, FACS; IC70; Table 1; read-out: CD69 Hu Blood FACS IC70. The gist of the method:
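Human whole blood stimulated by crosslinking surface IgM with goat F(ab′)2 anti-human IgM; inhibition of CD69 expression on B lymphocytes measured by flow cytometry.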
Consider `C[C@@H]1CN(C2COC2)CCN1c1ccc(Nc2cc(-c3ccnc(-n4ncc5c6c(sc5c4=O)CCCC6)c3CO)cn(C)c2=O)nc1` [Example 154, 3-{3′-Hydroxymethyl-1-methyl-5-[5-((R)-2-methyl-4-oxetan-3-yl-piperazin-1-yl)-pyridin-2-ylamino]-6-oxo-1,6-dihydro-[3,4′]bipyridinyl-2′-yl}-6,7,8,9-tetrahydro-3H-benzo[4,5]thieno[2,3-d]pyridazin-4-one], for which the IC70 came to 37.4 nM. Under `C[C@@H]1CN(c2ccc(Nc3cc(-c4ccnc(N5CCc6c(cc7n6CCCC7)C5=O)c4CO)cn(C)c3=O)nc2)[C@@H](C)CN1C1COC1` [Example 155, 2-{5-[5-((2S,5R)-2,5-Dimethyl-4-oxetan-3-yl-piperazin-1-yl)-pyridin-2-ylamino]-3′-hydroxymethyl-1-methyl-6-oxo-1,6-dihydro-[3,4′]bipyridinyl-2′-yl}-2,3,5,6,7,8-hexahydro-4H-2,4b-diaza-fluoren-1-one] stands 45.4 nM; under `C[C@@H]1CN(c2ccc(Nc3cc(-c4ccnc(N5CCn6c7c(c(F)c6C5=O)CCCC7)c4CO)cn(C)c3=O)nc2)[C@@H](C)CN1C1COC1` [Example 156, 2-{5-[5-((2S,5R)-2,5-Dimethyl-4-oxetan-3-yl-piperazin-1-yl)-pyridin-2-ylamino]-3′-hydroxymethyl-1-methyl-6-oxo-1,6-dihydro-[3,4′]bipyridinyl-2′-yl}-10-fluoro-3,4,6,7,8,9-hexahydro-2H-pyrazino[1,2-a]indol-1-one], 14.5 nM.

With `C[C@@H]1CN(c2ccc(Nc3cc(-c4cncc(N5CCn6c(cc7c6CCCC7)C5=O)c4CO)cn(C)c3=O)nc2)[C@@H](C)CN1C1COC1` [Example 157], the IC70 amounted to 29.8 nM. Under `C[C@@H]1CN(c2ccc(Nc3cc(-c4ccnc(N5CCn6c(cc7c6CC(C)(C)C7)C5=O)c4CO)cn(C)c3=O)nc2)[C@@H](C)CN1C1COC1` [Example 158, 2-{5-[5-((2S,5R)-2,5-Dimethyl-4-oxetan-3-yl-piperazin-1-yl)-pyridin-2-ylamino]-3′-hydroxymethyl-1-methyl-6-oxo-1,6-dihydro-[3,4′]bipyridinyl-2′-yl}-7,7-dimethyl-3,4,7,8-tetrahydro-2H,6H-cyclopenta[4,5]pyrrolo[1,2-a]pyrazin-1-one] stands 20 nM; under `C[C@@H]1CN(c2ccc(Nc3cc(-c4ccnc(-n5ncc6c7c(sc6c5=O)CCCC7)c4CO)cn(C)c3=O)nc2)[C@@H](C)CN1C1COC1` [Example 159, 3-{5-[5-((2S, 5R)-2,5-Dimethyl-4-oxetan-3-yl-piperazin-1-yl)-pyridin-2-ylamino]-3′-hydroxymethyl-1-methyl-6-oxo-1,6-dihydro-[3,4′]bipyridinyl-2′-yl}-6,7,8,9-tetrahydro-3H-benzo[4,5]thieno[2,3-d]pyridazin-4-one], 82 nM. Under `C[C@@H]1CN(c2ccc(Nc3cc(-c4ccnc(-n5ccn6c7c(cc6c5=O)CCCC7)c4CO)cn(C)c3=O)nc2)[C@@H](C)CN1C1COC1` [Example 160, 2-{5-[5-((2S, 5R)-2,5-Dimethyl-4-oxetan-3-yl-piperazin-1-yl)-pyridin-2-ylamino]-3′-hydroxymethyl-1-methyl-6-oxo-1,6-dihydro-[3,4′]bipyridinyl-2′-yl}-6,7,8,9-tetrahydro-2H-pyrazino[1,2-a]indol-1-one] stands 54.7 nM; under `CC[C@H]1CN(C2COC2)CCN1c1ccc(Nc2cc(-c3ccnc(N4CCc5c(cc6n5CCCC6)C4=O)c3CO)cn(C)c2=O)nc1` [Example 161, 2-{5-[5-((S)-2-Ethyl-4-oxetan-3-yl-piperazin-1-yl)-pyridin-2-ylamino]-3′-hydroxymethyl-1-methyl-6-oxo-1,6-dihydro-[3,4′]bipyridinyl-2′-yl}-2,3,5,6,7,8-hexahydro-4H-2,4b-diaza-fluoren-1-one], 64 nM; under `Cn1cc(-c2ccnc(N3CCn4c(cc5c4CCCC5)C3=O)c2CO)cc(Nc2cnccn2)c1=O` [Example 162, 2-[3′-Hydroxymethyl-1-methyl-6-oxo-5-(pyrazin-2-ylamino)-1,6-dihydro-[3,4′]bipyridinyl-2′-yl]-3,4,6,7,8,9-hexahydro-2H-pyrazino[1,2-a]indol-1-one], 434 nM. Under `Cn1cc(-c2ccnc(N3CCn4c(cc5c4CC(C)(C)C5)C3=O)c2CO)cc(Nc2cc3n(n2)CCN(C2COC2)C3)c1=O` [Example 163, 2-[3′-Hydroxymethyl-1-methyl-5-(5-oxetan-3-yl-4,5,6,7-tetrahydro-pyrazolo[1,5-a]pyrazin-2-ylamino)-6-oxo-1,6-dihydro-[3,4′]bipyridinyl-2′-yl]-7,7-dimethyl-3,4,7,8-tetrahydro-2H,6H-cyclopenta[4,5]pyrrolo[1,2-a]pyrazin-1-one] stands 22.8 nM; under `CC[C@H]1CN(C2COC2)CCN1c1ccc(Nc2cc(-c3ccnc(N4CCn5c(cc6c5CC(C)(C)C6)C4=O)c3CO)cn(C)c2=O)nc1` [Example 164, 2-{5-[5-((S)-2-Ethyl-4-oxetan-3-yl-piperazin-1-yl)-pyridin-2-ylamino]-3′-hydroxymethyl-1-methyl-6-oxo-1,6-dihydro-[3,4′]bipyridinyl-2′-yl}-7,7-dimethyl-3,4,7,8-tetrahydro-2H,6H-cyclopenta[4,5]pyrrolo[1,2-a]pyrazin-1-one], 29 nM. For `CC[C@H]1CN(C2COC2)CCN1c1ccc(Nc2cc(-c3ccnc(-n4ccn5c6c(cc5c4=O)CCCC6)c3CO)cn(C)c2=O)nc1` [Example 165, 2-{5-[5-((S)-2-Ethyl-4-oxetan-3-yl-piperazin-1-yl)-pyridin-2-ylamino]-3′-hydroxymethyl-1-methyl-6-oxo-1,6-dihydro-[3,4′]bipyridinyl-2′-yl}-6,7,8,9-tetrahydro-2H-pyrazino[1,2-a]indol-1-one], the IC70 stood at 41.7 nM.

As for `Cn1cc(-c2ccnc(N3CCn4c5c(c(F)c4C3=O)CCCC5)c2CO)cc(Nc2cc3n(n2)CCN(C2COC2)C3)c1=O` [Example 166, 10-Fluoro-2-[3′-hydroxymethyl-1-methyl-5-(5-oxetan-3-yl-4,5,6,7-tetrahydro-pyrazolo[1,5-a]pyrazin-2-ylamino)-6-oxo-1,6-dihydro-[3,4′]bipyridinyl-2′-yl]-3,4,6,7,8,9-hexahydro-2H-pyrazino[1,2-a]indol-1-one], the IC70 was determined as 155 nM. Under `Cn1cc(-c2ccnc(N3CCn4c(cc5c4CC(C)(C)C5)C3=O)c2CO)cc(Nc2cc3n(n2)CCOC3)c1=O` [Example 168, 2-[5-(6,7-Dihydro-4H-pyrazolo[5,1-c][1,4]oxazin-2-ylamino)-3′-hydroxymethyl-1-methyl-6-oxo-1,6-dihydro-[3,4′]bipyridinyl-2′-yl]-7,7-dimethyl-3,4,7,8-tetrahydro-2H,6H-cyclopenta[4,5]pyrrolo[1,2-a]pyrazin-1-one] stands 63.5 nM. Under `Cn1cc(-c2ccnc(N3CCc4c(sc5c4CCCC5)C3=O)c2CO)cc(Nc2ccc(N3CCN(C4COC4)CC3)cn2)c1=O` [Example 169, 2-{3′-Hydroxymethyl-1-methyl-5-[5-(4-oxetan-3-yl-piperazin-1-yl)-pyridin-2-ylamino]-6-oxo-1,6-dihydro-[3,4′]bipyridinyl-2′-yl}-3,4,5,6,7,8-hexahydro-2H-benzo[4,5]thieno[2,3-c]pyridin-1-one] stands 206 nM; under `C[C@H]1CN(C2COC2)CCN1c1ccc(Nc2cc(-c3ccnc(N4CCn5c(cc6c5[C@H]5CC[C@@H]6C5)C4=O)c3CO)cn(C)c2=O)nc1` [Example 171, (S)-2-(3-(hydroxymethyl)-4-(1-methyl-5-(5-(2-methyl-4-(oxetan-3-yl)piperazin-1-yl)pyridin-2-ylamino)-6-oxo-1,6-dihydropyridin-3-yl)pyridin-2-yl)-3,4,6,7,8,9-hexahydro-6,9-methanopyrazino[1,2-a]indol-1(2H)-one], 36 nM; under `Cn1cc(-c2ccnc(N3CCn4c(cc5c4CCCC5)C3=O)c2CO)cc(Nc2nccnn2)c1=O` [Example 172, 2-(4-(5-(1,2,4-triazin-3-ylamino)-1-methyl-6-oxo-1,6-dihydropyridin-3-yl)-3-(hydroxymethyl)pyridin-2-yl)-3,4,6,7,8,9-hexahydropyrazino[1,2-a]indol-1(2H)-one], 5000 nM. Under `Cc1cc(Nc2cc(-c3ccnc(N4CCn5c(cc6c5CC(C)(C)C6)C4=O)c3CO)cn(C)c2=O)nc(C)n1` [Example 173, 2-[5-(2,6-Dimethyl-pyrimidin-4-ylamino)-3′-hydroxymethyl-1-methyl-6-oxo-1,6-dihydro-[3,4′]bipyridinyl-2′-yl]-7,7-dimethyl-3,4,7,8-tetrahydro-2H,6H-cyclopenta[4,5]pyrrolo[1,2-a]pyrazin-1-one] stands 1000 nM; under `C[C@H]1CN(C2COC2)CCN1c1ccc(Nc2cc(-c3ccnc(N4CCn5c(cc6c5[C@@H]5CC[C@H]6C5)C4=O)c3CO)cn(C)c2=O)nc1` [Example 174, (1R,11S)-6-[3-(Hydroxymethyl)-4-[1-methyl-5-({5-[(2S)-2-methyl-4-(oxetan-3-yl)piperazin-1-yl]pyridin-2-yl}amino)-6-oxo-1,6-dihydropyridin-3-yl]pyridin-2-yl]-3,6-diazatetracyclo[9.2.1.0^2,10.0^3,8]tetradeca-2(10),8-dien-7-one], 101 nM; under `CC[C@H]1CN(C2COC2)CCN1c1ccc(Nc2cc(-c3ccnc(-n4ncc5c6c(sc5c4=O)CCCC6)c3CO)cn(C)c2=O)nc1` [Example 175, 3-{5-[5-((S)-2-Ethyl-4-oxetan-3-yl-piperazin-1-yl)-pyridin-2-ylamino]-3′-hydroxymethyl-1-methyl-6-oxo-1,6-dihydro-[3,4′]bipyridinyl-2′-yl}-6,7,8,9-tetrahydro-3H-benzo[4,5]thieno[2,3-d]pyridazin-4-one], 46.6 nM. On to `C[C@H]1CN(C2COC2)CCN1c1ccc(Nc2cc(-c3ccnc(-n4ccn5c6c(cc5c4=O)CCCC6)c3CO)cn(C)c2=O)nc1` [Example 176, (S)-2-(3-(hydroxymethyl)-4-(1-methyl-5-(5-(2-methyl-4-(oxetan-3-yl)piperazin-1-yl)pyridin-2-ylamino)-6-oxo-1,6-dihydropyridin-3-yl)pyridin-2-yl)-6,7,8,9-tetrahydropyrazino[1,2-a]indol-1(2H)-one], for which the IC70 was 37.5 nM.
